Source: patent US20180201592A1, “2-AMINO-1,3,4-THIADIAZINE AND 2-AMINO-1,3,4-OXADIAZINE BASED ANTIFUNGAL AGENTS” (F2G Limited, priority 2015, published 2018)

What was measured:
Settings in all cases: banded MIC grade
Aspergillus fumigatus = assay: Minimum inhibitory concentration, YAG medium; assay type: cell-based
Summary of the method: (§1)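 MIC, in mg/L, defined as the lowest drug level inhibiting growth by >70% relative to drug-free wells, judged by OD 485 nm after 24 hrs at 35° C. Spores (1-2×10^4 cfu/mL) were grown in YAG medium against doubling dilutions, usually 50-0.05 mg/L, repeated at 0.5-0.0005 mg/L where needed.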

A. fumigatus 210 [1] = assay: Minimum inhibitory concentration, RPMI medium; assay type: cell-based
Summary of the method: (§2)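 Compound doubling dilutions were prepared from 5 mg/mL DMSO stock; fungus was diluted in RPMI 1640 with 2% glucose and 0.135 M MOPS (pH 7.0), giving inocula of 1-2×10^4 cfu/mL and drug range 50-0.05 mg/L. Plates ran 24-48 hrs at 35° C; MIC is the lowest concentration giving >80% growth inhibition by OD485 versus drug-free control.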

A. fumigatus = assay: Minimum inhibitory concentration, RPMI medium; assay type: cell-based
Summary of the method: as §2

Aspergillus niger = assay: Minimum inhibitory concentration, YAG medium; assay type: cell-based
Summary of the method: (§3)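 Compound from a 5 mg/mL DMSO stock was further diluted in sterile water, then serially doubled in water and plated with Aspergillus spp. spores. After 24 hrs at 35° C, growth was monitored by optical density at 485 nm; MICs are given in mg/L.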

Aspergillus terreus = assay: Minimum inhibitory concentration, YAG medium; assay type: cell-based
Summary of the method: as §3

Aspergillus flavus = assay: Minimum inhibitory concentration, YAG medium; assay type: cell-based
Summary of the method: as §3

A. fumigatus 210 [2] = assay: Minimum inhibitory concentration, YAG medium; assay type: cell-based, Aspergillus fumigatus
Summary of the method: as §1

A. niger = assay: Minimum inhibitory concentration, RPMI medium; assay type: cell-based
Summary of the method: (§4)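 Compound stock was made at 5 mg/mL in DMSO, diluted in sterile water and serially doubled in water, then tested in RPMI 1640 medium. Plates were incubated 24-48 hrs at 35° C, and growth was scored as optical density at 485 nm.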

C. glabrata = assay: Minimum inhibitory concentration, RPMI medium; assay type: cell-based
Summary of the method: as §4

C. tropicalis = assay: Minimum inhibitory concentration, RPMI medium; assay type: cell-based
Summary of the method: as §4

A. terreus 49 [3] = assay: Minimum inhibitory concentration, RPMI medium; assay type: cell-based
Summary of the method: as §4

A. flavus = assay: Minimum inhibitory concentration, RPMI medium; assay type: cell-based
Summary of the method: as §4

C. parapsilosis = assay: Minimum inhibitory concentration, RPMI medium; assay type: cell-based
Summary of the method: as §4

A. terreus = assay: Minimum inhibitory concentration, RPMI medium; assay type: cell-based
Summary of the method: as §4

C. albicans = assay: Minimum inhibitory concentration, RPMI medium; assay type: cell-based
Summary of the method: as §4

C. krusei = assay: Minimum inhibitory concentration, RPMI medium; assay type: cell-based
Summary of the method: as §4

A. terreus 49 [4] = assay: Minimum inhibitory concentration, YAG medium; assay type: cell-based, Aspergillus terreus
Summary of the method: as §3

| SMILES | MIC grade, A. FUMIGATUS, YAG media (Aspergillus fumigatus) | MIC grade, A. FUMIGATUS 210, RPMI media (A. fumigatus 210 [1]) | MIC grade, A. FUMIGATUS, RPMI media (A. fumigatus) | MIC grade, A. NIGER, YAG media (Aspergillus niger) | MIC grade, A. TERREUS, YAG media (Aspergillus terreus) | MIC grade, A. FLAVUS, YAG media (Aspergillus flavus) | MIC grade, A. FUMIGATUS 210, YAG media (A. fumigatus 210 [2]) | MIC grade, A. NIGER, RPMI media (A. niger) | MIC grade, C. GLABRATA, RPMI media (C. glabrata) | MIC grade, C. TROPICALIS, RPMI media (C. tropicalis) | MIC grade, A. TERREUS 49, RPMI media (A. terreus 49 [3]) | MIC grade, A. FLAVUS, RPMI media (A. flavus) | MIC grade, C. PARAPSILOSIS, RPMI media (C. parapsilosis) | MIC grade, A. TERREUS, RPMI media (A. terreus) | MIC grade, C. ALBICANS, RPMI media (C. albicans) | MIC grade, C. KRUSEI, RPMI media (C. krusei) | MIC grade, A. TERREUS 49, YAG media (A. terreus 49 [4]) |
| --- | --- | --- | --- | --- | --- | --- | --- | --- | --- | --- | --- | --- | --- | --- | --- | --- | --- |
| NC1=NN=C(CCOCCOc2ccccc2)CS1 | 4 (4: <0.2 mg/L) | 3 (3: 1-5 mg/L) | 3 (3: 1-5 mg/L) | 4 (4: <0.2 mg/L) | 4 (4: <0.2 mg/L) | 4 (4: <0.2 mg/L) | 4 (4: <0.2 mg/L) | 3 (3: 1-5 mg/L) | 2 (2: 5-20 mg/L) | 3 (3: 1-5 mg/L) | 4 (4: <1 mg/L) | 3 (3: 1-5 mg/L) | 4 (4: <1 mg/L) | 4 (4: <1 mg/L) | 3 (3: 1-5 mg/L) | 4 (4: <1 mg/L) | 4 (4: <0.2 mg/L) |
| NC1=NN=C(CCCCOCc2cccc(-c3ccccc3)c2)CS1 | 1 (1: ≥5 mg/L) | 1 (1: ≥20 mg/L) | 1 (1: ≥20 mg/L) | 2 (2: 1-5 mg/L) | 2 (2: 1-5 mg/L) | 2 (2: 1-5 mg/L) | 1 (1: ≥5 mg/L) | 1 (1: ≥20 mg/L) | 1 (1: ≥20 mg/L) | 2 (2: 5-20 mg/L) | 1 (1: ≥20 mg/L) | 2 (2: 5-20 mg/L) | 2 (2: 5-20 mg/L) | 2 (2: 5-20 mg/L) | 2 (2: 5-20 mg/L) | 2 (2: 5-20 mg/L) | 2 (2: 1-5 mg/L) |
| NC1=NN=C(CCCCOCc2ccc(F)cc2F)CS1 | 4 (4: <0.2 mg/L) | 3 (3: 1-5 mg/L) | 4 (4: <1 mg/L) | 4 (4: <0.2 mg/L) | 4 (4: <0.2 mg/L) | 4 (4: <0.2 mg/L) | 4 (4: <0.2 mg/L) | 4 (4: <1 mg/L) | 4 (4: <1 mg/L) | 4 (4: <1 mg/L) | 4 (4: <1 mg/L) | 4 (4: <1 mg/L) | 4 (4: <1 mg/L) | 4 (4: <1 mg/L) | 4 (4: <1 mg/L) | 4 (4: <1 mg/L) | 4 (4: <0.2 mg/L) |
